Assay type in all cases: in vivo
Test [1] deals with Pseudoperonospora cubensis. Put plainly: Test of examining control effect on Pseudoperonospora cubensis (potted cucumber plants). As to conditions: 96 h, 10% wettable powder adjusted to 125 ppm, 15 ml/pot sprayed on potted cucumber plants one day before spray inoculation, assessed after 1 day wet chamber and 3 days greenhouse, read-out: Determination of control effect (preventive value) on Pseudoperonospora cubensis. The gist of the method: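 Preventive treatment: 125 ppm sample agent solution (from 10% wettable powder) sprayed at 15 ml/pot on 2.5-leaf Sagamihanjiro cucumbers, then P. cubensis inoculated next day at 1.0×10^4 cells/ml. Incubation was 1 day wet at 21° C plus 3 days greenhouse. Lesion area rate compared with untreated gives preventive value (≥60% high).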

In the next test the test system is Phytophthora infestans. The test can be described thus: whole plant or invertebrate. To be noted: in Solanum lycopersicum, 96 h, read-out: Determination of control effect (preventive value).
In a further test the test system is Sphaerotheca fuliginea. The test can be described thus: Test of examining control effect on Sphaerotheca fuliginea (potted cucumber plants). As to conditions: Podosphaera fuliginea, 336 h, 10% wettable powder adjusted to 125 ppm, 15 ml/pot sprayed on potted cucumber plants one day before spray inoculation, assessed after 14 days in greenhouse, read-out: Determination of control effect (preventive value) on Sphaerotheca fuliginea. In a few lines: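 Control effect rated high at preventive value 60–100% and low below 60%, from lesion area relative to untreated plants 14 days after spray inoculation with S. fuliginea (1.0×10^5 cells/ml). Compound applied at 125 ppm as wettable-powder spray one day before inoculation, on 2nd-leaf-stage Sagamihanjiro cucumber.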

Each structure is given as a SMILES string. Where two headings read alike, the source gives them in different places.

As for `Cc1nc(C#CCC(C)Nc2ncnc3sccc23)cs1` (stereo not drawn) [compound 266], the pest or weed control at 125 µg/mL (in test [1]; in the test on Sphaerotheca fuliginea) was 60 to 100% throughout. The pest or weed control at 125 ppm in the test on Phytophthora infestans lay in the range of 60 to 100%.

For the compound `C(#Cc1ccc2ncccc2c1)CCNc1ncnc2ccccc12` [compound 190], the figures for the pest or weed control at 125 µg/mL (in test [1]; with Sphaerotheca fuliginea) were 60 to 100% and 0 to 60%, respectively. The pest or weed control at 125 ppm in the test with Phytophthora infestans was 0 to 60%.

With `CCOC(OCC)c1ccc(C#CCCNc2ncnc3ccccc23)cc1` [compound 151], the pest or weed control at 125 µg/mL (in test [1]; in the test with Sphaerotheca fuliginea) was 60 to 100% each time. Moreover, the pest or weed control at 125 ppm in the test with Phytophthora infestans is 60 to 100%.

As to `CC(CC#Cc1ccc(C(F)(F)F)cc1C(F)(F)F)Nc1ncnc2ccccc12` (stereo not drawn) [compound 280], the pest or weed control at 125 µg/mL in test [1] fell in the range of 60 to 100%; in the test on Sphaerotheca fuliginea it was 0 to 60%. Also, the pest or weed control at 125 ppm in the test with Phytophthora infestans lay within 0 to 60%.

In the case of `COCc1cc(Cl)ccc1C#CCCNc1ncnc2ccccc12` [compound 140], the pest or weed control at 125 µg/mL (in test [1]; in the test on Sphaerotheca fuliginea) was 60 to 100% in each case. For the same compound, the pest or weed control at 125 ppm in the test with Phytophthora infestans is 60 to 100%.

Regarding `COCc1nc(C#CCCNc2ncnc3sccc23)cs1` [compound 72], the pest or weed control at 125 µg/mL (in test [1]; in the test with Sphaerotheca fuliginea) was 60 to 100% in each case. The pest or weed control at 125 ppm with Phytophthora infestans lay in the range of 60 to 100%.

Regarding `COCc1ccccc1C#CCCNc1ncnc2cc(Cl)ccc12` [compound 312], the pest or weed control at 125 µg/mL (in test [1]; in the test on Sphaerotheca fuliginea) was 60 to 100% in each case. The pest or weed control at 125 ppm in the test with Phytophthora infestans was in the range of 0 to 60%.

In the case of `Cc1ccc(C#CCC(C)Nc2ncnc3ccccc23)cc1` (stereo not drawn) [compound 279], the pest or weed control at 125 µg/mL (in test [1]; in the test on Sphaerotheca fuliginea) was 60 to 100% in each case. The pest or weed control at 125 ppm with Phytophthora infestans lay in the range of 60 to 100%.

`CCOC(=O)C(CC#Cc1ccccc1C(F)(F)F)Nc1ncnc2ccccc12` (stereo not drawn) [compound 304]: the pest or weed control at 125 µg/mL (in test [1]; in the test on Sphaerotheca fuliginea) was 60 to 100% throughout. The pest or weed control at 125 ppm in the test with Phytophthora infestans fell in the range of 0 to 60%.

Consider `COc1cc(OC)nc(C#CCCNc2ncnc3sccc23)n1` [compound 60], for which the figures for the pest or weed control at 125 µg/mL (in test [1]; with Sphaerotheca fuliginea) were 60 to 100% and 0 to 60%, respectively. In the test on Phytophthora infestans, the pest or weed control at 125 ppm fell in the range of 60 to 100%.

As for `COc1ccccc1C#CCC(C)Nc1ncnc2ccccc12` (stereo not drawn) [compound 276], the values for the pest or weed control at 125 µg/mL (in test [1]; with Sphaerotheca fuliginea) were 60 to 100% and 0 to 60%, respectively. The pest or weed control at 125 ppm in the test with Phytophthora infestans was 60 to 100%.

Regarding `Fc1ccccc1C#CCCNc1ncnc2sccc12` [compound 11], the pest or weed control at 125 µg/mL (in test [1]; in the test on Sphaerotheca fuliginea) was 60 to 100% in each case. The pest or weed control at 125 ppm in the test on Phytophthora infestans lay in the range of 60 to 100%.

`CNC(=O)c1ccc(C#CCCNc2ncnc3ccccc23)cc1` [compound 126]: the pest or weed control at 125 µg/mL in test [1] lay in the range of 60 to 100%; in the test on Sphaerotheca fuliginea, 0 to 60%. The pest or weed control at 125 ppm with Phytophthora infestans lay within 60 to 100%.

As for `COCc1cc(F)ccc1C#CCCNc1ncnc2ccccc12` [compound 139], the pest or weed control at 125 µg/mL (in test [1]; with Sphaerotheca fuliginea) was 60 to 100% throughout. Moreover, the pest or weed control at 125 ppm with Phytophthora infestans fell in the range of 60 to 100%.

On to `C#CCCNc1ncnc2ccccc12` [compound 86], for which the pest or weed control at 125 µg/mL (in test [1]; with Sphaerotheca fuliginea) was 60 to 100% throughout. For the same compound, the pest or weed control at 125 ppm with Phytophthora infestans was in the range of 0 to 60%.

Take `C=CC(CC#Cc1ccc(F)cc1)Nc1ncnc2ccccc12` (stereo not drawn) [compound 297]: the pest or weed control at 125 µg/mL (in test [1]; in the test with Sphaerotheca fuliginea) was 60 to 100% each time. For the same compound, the pest or weed control at 125 ppm in the test on Phytophthora infestans was 0 to 60%.

With `FC(F)(F)c1ccccc1C#CCCNc1ncnc(Cl)c1Br` [compound 367], the pest or weed control at 125 µg/mL (in test [1]; with Sphaerotheca fuliginea) was 60 to 100% each time. In addition, the pest or weed control at 125 ppm in the test on Phytophthora infestans lay within 0 to 60%.

Turning to `C(#Cc1ccccc1C1OCCO1)CCNc1ncnc2ccccc12` [compound 155], the pest or weed control at 125 µg/mL in test [1] fell in the range of 60 to 100%; in the test with Sphaerotheca fuliginea it was 0 to 60%. In addition, in the test on Phytophthora infestans, the pest or weed control at 125 ppm is 0 to 60%.

`OCCc1ccccc1C#CCCNc1ncnc2ccccc12` [compound 158]: the pest or weed control at 125 µg/mL (in test [1]; with Sphaerotheca fuliginea) was 60 to 100% each time. Further, the pest or weed control at 125 ppm in the test on Phytophthora infestans lay within 0 to 60%.

Turning to `C/C(C#N)=C/C#CCCNc1ncnc2ccccc12` [compound 93], the pest or weed control at 125 µg/mL (in test [1]; with Sphaerotheca fuliginea) was 60 to 100% each time. For the same compound, the pest or weed control at 125 ppm with Phytophthora infestans was 60 to 100%.

With `FC(F)(F)c1ccccc1C#CCCNc1ncnc2cc3ccccc3cc12` [compound 342], the results for the pest or weed control at 125 µg/mL (in test [1]; in the test on Sphaerotheca fuliginea) were 60 to 100% and 0 to 60%, respectively. Also, in the test on Phytophthora infestans, the pest or weed control at 125 ppm was 0 to 60%.

Regarding `FC(F)(F)c1ccccc1C#CCCNc1ncnc2c(Cl)cccc12` [compound 307], the pest or weed control at 125 µg/mL (in test [1]; with Sphaerotheca fuliginea) was 60 to 100% throughout. Further, the pest or weed control at 125 ppm with Phytophthora infestans lay in the range of 0 to 60%.

As for `CCOC(=O)C(CC#Cc1ccccc1)Nc1ncnc2ccccc12` (stereo not drawn) [compound 303], the results for the pest or weed control at 125 µg/mL (in test [1] (in Cucumis sativus); in the test with Sphaerotheca fuliginea (in Cucumis sativus)) were 60 to 100% and 0 to 60%, respectively. Besides, in the test with Phytophthora infestans, the pest or weed control at 125 ppm was in the range of 0 to 60%.

As to `COCc1ccccc1C#CCCNc1ncnc2ccc(OCc3ccccc3)cc12` [compound 340], the pest or weed control at 125 µg/mL fell in the range of 60 to 100% in test [1] and 0 to 60% in the test on Sphaerotheca fuliginea. In the test on Phytophthora infestans, the pest or weed control at 125 ppm lay within 0 to 60%.

In the case of `COCc1ccc(F)cc1C#CCCNc1ncnc2ccccc12` [compound 142], the pest or weed control at 125 µg/mL (in test [1]; in the test with Sphaerotheca fuliginea) was 60 to 100% throughout. For the same compound, the pest or weed control at 125 ppm in the test on Phytophthora infestans fell in the range of 60 to 100%.

On to `CC(CC#Cc1ccccc1OC(C)C)Nc1ncnc2sccc12` (stereo not drawn) [compound 242], for which the pest or weed control at 125 µg/mL (in test [1]; in the test on Sphaerotheca fuliginea) was 60 to 100% in each case. Also, the pest or weed control at 125 ppm in the test with Phytophthora infestans lay in the range of 0 to 60%.

Turning to `CCc1ccccc1C#CCCNc1ncnc2ccccc12` [compound 103], the pest or weed control at 125 µg/mL (in test [1]; with Sphaerotheca fuliginea) was 60 to 100% throughout. Further, in the test on Phytophthora infestans, the pest or weed control at 125 ppm was in the range of 60 to 100%.

Consider `Cc1ccc(Oc2ccc(C#CCCNc3ncnc4ccccc34)cc2)cc1` [compound 186], for which the figures for the pest or weed control at 125 µg/mL (in test [1]; in the test with Sphaerotheca fuliginea) were 0 to 60% and 60 to 100%, respectively. Also, the pest or weed control at 125 ppm in the test on Phytophthora infestans is 0 to 60%.

Take `CC[Si](C#CCCNc1ncnc2sccc12)(CC)CC` [compound 3]: the pest or weed control at 125 µg/mL (in test [1]; in the test with Sphaerotheca fuliginea) was 60 to 100% each time. In addition, in the test with Phytophthora infestans, the pest or weed control at 125 ppm was 0 to 60%.

With `CC(CC#Cc1ccc(Cl)c(C(F)(F)F)c1)Nc1ncnc2ccccc12` (stereo not drawn) [compound 284], the pest or weed control at 125 µg/mL (in test [1]; in the test with Sphaerotheca fuliginea) was 60 to 100% throughout. In the test on Phytophthora infestans, the pest or weed control at 125 ppm lay within 0 to 60%.

In the case of `CC(F)c1ncnc(NCCC#Cc2ccccc2)c1Br` (stereo not drawn) [compound 375], the pest or weed control at 125 µg/mL (in test [1]; with Sphaerotheca fuliginea) was 60 to 100% in each case. In the test with Phytophthora infestans, the pest or weed control at 125 ppm lay in the range of 60 to 100%.

For `Cc1cccc(C#CCCNc2ncnc3ccccc23)n1` [compound 200], the pest or weed control at 125 µg/mL (in test [1]; in the test on Sphaerotheca fuliginea) was 60 to 100% each time. The pest or weed control at 125 ppm with Phytophthora infestans lay in the range of 60 to 100%.

As to `CNC(=O)C(CC#Cc1ccccc1)Nc1ncnc2ccccc12` (stereo not drawn) [compound 305], the values for the pest or weed control at 125 µg/mL (in test [1] (in Cucumis sativus); in the test on Sphaerotheca fuliginea (in Cucumis sativus)) were 60 to 100% and 0 to 60%, respectively. The pest or weed control at 125 ppm in the test on Phytophthora infestans is 0 to 60%.

The record behind these values is US8586505B2 (SDS Biotech K. K., priority 2009, dated 2013).
